Measurements reported in PubChem BioAssay (NCI).
Where “and” joins values, the source holds several entries; their conditions need not be identical. Equal entries are not always repeated.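 How tested: cells in 96-well plates exposed to compound for 48 hours at five concentrations. GI50 = concentration required for 50% inhibition of growth. TGI denotes the concentration required for complete inhibition of growth.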

Experiments:
Test in all cases: NCI anticancer screen, dose series, 48 h
[1] = system: DMS 273 small cell lung
[2] = system: EKVX NSCLC
[3] = system: KM12 colon
[4] = system: SF-295 CNS
[5] = system: SK-OV-3 ovarian
[6] = system: SNB-19 CNS
[7] = system: UO-31 renal
[8] = system: XF 498 CNS
[9] = system: HCT-116 colon
[10] = system: HS 578T breast

Structure (SMILES) | TGI [1] [µM] | TGI [2] [µM] | TGI [3] [µM] | TGI [4] [µM] | TGI [5] [µM] | TGI [6] [µM] | TGI [7] [µM] | TGI [8] [µM] | TGI [9] [µM] | TGI [10] [µM] | GI50 [2] [µM] | GI50 [9] [µM] | GI50 [10] [µM] | GI50 [3] [µM] | GI50 [4] [µM] | GI50 [5] [µM] | GI50 [6] [µM] | GI50 [7] | GI50 [1] [µM]
CCCCNC1=C(C(=O)OCC)C(=O)CO1 | > 100 | > 100 | > 100 | > 100 | > 100 | > 100 | > 100 | > 100 |  |  |  |  |  |  |  |  |  |  | 
CC1(Cl)C(=O)NC(=O)N(C2CC(N=[N+]=[N-])C(CO)O2)C1N=[N+]=[N-] (stereo unspecified) | > 100 | > 100 | > 100 | > 100 | > 100 | > 100 | > 100 | > 100 |  |  |  |  |  |  |  |  |  |  | 
Cc1ccc(C)c(NC(=O)CC/C(=N\NC(=O)C(=O)NN)C(C)C(=O)c2ccc(O)cc2)c1 (stereo unspecified) | > 100 | > 100 | > 100 | > 100 | > 100 | > 100 | > 100 |  | > 100 |  |  |  |  |  |  |  |  |  | 
COc1ccc2[nH]c3c(C)c4c(c(C)c3c2c1)CN(C)CC4 | 29.6 |  | 27.1 | 32.9 | 30 | 48.5 | 30 |  | 11.8 |  |  |  |  |  |  |  |  |  | 
OCCC1(O)CCC(O)CC1 (stereo unspecified) | > 100 | > 100 | > 100 | > 100 | > 100 | > 100 | > 100 |  | > 100 |  |  |  |  |  |  |  |  |  | 
CC1OC(n2cc(F)c(=O)[nH]c2=O)CCC1O (stereo unspecified) | > 100 | > 100 | > 100 | > 100 | > 100 | > 100 | > 100 |  | > 100 | > 100 |  |  |  |  |  |  |  |  | 
O=C1/C(=C/c2ccc(Br)cc2)C=C(c2ccccc2)N1CCc1ccccc1 |  | 19 | > 100 | 1.59 | 5 | 5.03 | 19.8 |  | 11.7 | 5.33 | 1.95 | 0.394 | 0.831 | 43.6 | 0.332 | 1.55 | 1.21 | 2.82 µM | 
COc1ccc(C2=NN(C(=O)c3cc(OC)c(OC)c(OC)c3)C(c3ccc(C#N)cc3)C2)cc1OC (stereo unspecified) |  | > 100 | > 27.3 | 2.37 | 8.32 | > 68.2 | 17.4 |  | > 44.2 | > 26 | 4.59 | 1.63 | 1.53 | 1.16 | 0.351 | 0.872 | 3.02 | 0.439 µM | 
COC(=O)C1=C(C(=O)OC)C2C=CC1C1C(Cl)=C(Cl)C21 (stereo unspecified) | > 100 | > 100 | > 100 | > 100 | > 100 |  | > 100 |  |  |  |  |  |  |  |  |  |  |  | 
Cn1cc(-c2cnc3ccc(NC(=O)Nc4ccc(F)c(Br)c4)cc3n2)cn1 |  | 7.96 | 3.65 | 3.73 | 5.99 | 10.4 | 3.07 |  | 3.75 | 5.15 | 2.55 | 1.87 | 2 | 1.71 | 1.89 | 2.24 | 2.66 | 1.42 µM | 
Cn1c(N2NC(=O)C(N=Nc3ccc(S(N)(=O)=O)cc3)C2=O)nc(-c2ccco2)c(C#N)c1=O (stereo unspecified) |  | > 50 | > 50 | > 50 | > 50 | > 50 | > 50 |  | > 50 | 38.6 | 35.7 | 15.4 | 9.85 | > 50 | > 50 | > 50 | > 50 | > 50 µM | 
CC1OC(O[C@H]2C[C@@H](O)[C@]3(CO)[C@H]4[C@H](O)C[C@]5(C)[C@@H](C6=CC(=O)OC6)CC[C@]5(O)[C@@H]4CC[C@]3(O)C2)C(O)C(O)C1O (stereo partly specified) |  | 30.5 | 32.3 | 35.3 | 33.8 | 33.6 | 57.1 |  | 33.7 | 65.9 | 16.5 | 19 | 25.6 | 17.8 | 19.3 | 18.8 | 18.3 | 24.7 µM | 
CCOc1cccc(/C=N/NC(=O)c2ccccc2Nc2ccnc(C(F)(F)F)c2)c1O |  | > 100 | 47.7 | 30.6 | 40.5 | > 100 |  |  | > 51.9 | > 100 | 0.404 | 0.336 | 6.92 | 0.513 | 0.516 | 0.676 | 2.04 | 0.303 µM | 
O=C(NCCOCCOCCNc1cccc2c1C(=O)N(C1CCCNC1=O)C2=O)c1cc2c(o1)C(=O)c1ccccc1C2=O (stereo unspecified) |  | 10.1 | 10 | 3.13 | 7.93 | 9.84 | 4.9 |  | 5.54 | 7.19 | 2.88 | 2.06 | 2.43 | 2.91 | 1.7 | 2.87 | 2.42 | 2.03 µM | 
COc1cc(C2c3cc4c(cc3C(NCC(O)CO)C3COC(=O)[C@H]23)OCO4)cc(OC)c1OC (stereo partly specified) |  | > 100 | > 100 |  | > 100 | > 100 | > 100 | > 100 |  |  |  |  |  |  |  |  |  |  | 
COc1ccc2c(c1)c(-c1nc(-c3cn(C)c4ncccc34)cs1)cn2CCCN1CCCCC1 |  | 3.17 | 3.45 | 3.18 | 3.53 | 3.52 | 2.87 |  | 3.05 | 5.8 | 1.67 | 1.68 | 2.24 | 1.78 | 1.71 | 1.83 | 1.9 | 1.51 µM | 
COc1ccc(/C(=C2\O[C@@H]([C@H]3COC(C)(C)O3)[C@H]3OC(C)(C)O[C@@H]23)c2cc(OC)c(OC)c(OC)c2)cc1O |  | > 100 | > 100 | 37.3 | 18.5 | > 100 | 77.8 |  | > 100 | 7.88 | 55.7 | 4.14 | 2.83 | 3.99 | 7 | 4.11 | 4.28 | 7.53 µM | 
CC1=C(C(=O)Nc2ccc3[nH]ncc3c2)C(c2ccc3ccccc3c2)CC(=O)N1 (stereo unspecified) |  | > 25 | > 25 | > 25 | > 25 | > 25 | > 25 |  | > 25 | > 25 | > 17.9 | 14.1 | 0.873 | 17.8 | 16.5 | > 25 | > 25 | 2.4 µM | 
COC(=O)CCCCN=Cc1c(O)c(O)c(C(C)C)c2cc(C)c(-c3c(C)cc4c(C(C)C)c(O)c(O)c(C=NCCCCC(=O)OC)c4c3O)c(O)c12 |  | > 32.5 | > 32.5 | 7.92 | 3.08 | > 32.5 | 26.5 |  | 4.98 | > 32.5 | 0.924 | 0.904 | 1.49 | 0.799 | 0.83 | 0.976 | 0.713 | 0.923 µM | 
Cc1ccc(S(=O)(=O)N(CCOc2ccc(/C(N)=N/Cl)cc2)CCOc2ccc(/C(N)=N\Cl)cc2)cc1 |  | 93.2 | 28.1 | 42.9 | > 100 | > 100 | > 100 |  | > 100 | 22.7 | 18.4 | 12.7 | 4.28 | 12.4 | 7.71 | 83.3 | 5.65 | > 100 µM | 
CSc1ccc(C2=NN(C(C)=O)C(c3cc(C)cs3)C2)cc1 (stereo unspecified) |  | > 100 | > 100 | > 100 | > 100 | > 100 | > 100 |  | 66.1 | 88.6 | 24.3 | 20.4 | 22.3 | 24 | 22.4 | 38.2 | 37 | 19.9 µM | 
CC(C)CC(=O)[O-].CC(C)CC(=O)[O-].N.N.N.N.[Co+3].[O-][Cl+3]([O-])([O-])[O-] | > 100 | > 100 | > 100 | > 100 | > 100 | > 100 | > 100 |  | > 100 |  | > 100 | > 100 |  | > 100 | > 100 | > 100 | > 100 | 84.7 µM and > 100 µM | > 100
COC(=O)c1cc2c3ccccc3[nH]c2c2ncccc12 |  | > 100 | > 100 | > 100 | > 100 | > 100 | > 100 |  | > 100 | 87 | 11.5 | 54.9 | 15.4 | 81.1 | 36.9 | 43.3 | 66.5 | 69.4 µM | 
CCc1c(Oc2ccc(C(C)=O)cc2)c2ccccc2[nH]c1=O |  | > 66 | > 60.9 | > 69.4 | 74.5 | > 100 | > 100 |  | 52.8 | 43.6 | 9.65 | 18.5 | 4.3 | 18.6 | 16.3 | 21 | 30.7 | 19.5 µM | 
CCCCCCCCCC[C@@H](O)[C@@H]1CC[C@H]([C@H]2CC[C@@H]([C@@H](O)CCCCCCCCCC[C@H]3CC(CC(C)=O)C(=O)O3)O2)O1 (stereo partly specified) | 32.8 | 78 |  |  | 34.1 | 31.3 | 16.5 |  | 17.8 |  |  |  |  |  |  |  |  |  | 
